{"source": "patent US20040167181A1", "about": "“Methods of treating conditions associated with an Edg-3 receptor” (priority 2003, published 2004)", "key": {"Edg-8": {"target": "T1, Edg-8 (Homo sapiens, UniProt Q9H228)", "T1 construct": "expressed in transfected cells; host or cells: HTC (rat hepatoma) cells", "T1 sequence (Q9H228 whole entry, species assumed)": "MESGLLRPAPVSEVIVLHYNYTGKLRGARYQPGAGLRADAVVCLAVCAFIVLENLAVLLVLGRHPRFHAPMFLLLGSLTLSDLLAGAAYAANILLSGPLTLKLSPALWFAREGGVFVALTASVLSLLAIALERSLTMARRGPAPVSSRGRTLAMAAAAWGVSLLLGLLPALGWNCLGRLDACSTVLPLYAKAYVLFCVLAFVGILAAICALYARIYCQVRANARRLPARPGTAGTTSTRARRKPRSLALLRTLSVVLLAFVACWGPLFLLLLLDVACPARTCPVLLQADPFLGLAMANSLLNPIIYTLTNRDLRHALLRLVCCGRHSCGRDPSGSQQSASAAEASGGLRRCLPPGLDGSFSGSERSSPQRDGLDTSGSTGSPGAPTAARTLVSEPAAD", "assay": "S1P-stimulated calcium increases in HTC cells expressing Edg-8", "format": "cell-based", "conditions": "concentrations as high as 10 μM"}, "Angiotensin AT2": {"target": "T2, Angiotensin AT2 (Homo sapiens, UniProt P50052)", "T2 construct": "expressed in transfected cells; host or cells: Hela cells", "T2 sequence (P50052 1-363)": "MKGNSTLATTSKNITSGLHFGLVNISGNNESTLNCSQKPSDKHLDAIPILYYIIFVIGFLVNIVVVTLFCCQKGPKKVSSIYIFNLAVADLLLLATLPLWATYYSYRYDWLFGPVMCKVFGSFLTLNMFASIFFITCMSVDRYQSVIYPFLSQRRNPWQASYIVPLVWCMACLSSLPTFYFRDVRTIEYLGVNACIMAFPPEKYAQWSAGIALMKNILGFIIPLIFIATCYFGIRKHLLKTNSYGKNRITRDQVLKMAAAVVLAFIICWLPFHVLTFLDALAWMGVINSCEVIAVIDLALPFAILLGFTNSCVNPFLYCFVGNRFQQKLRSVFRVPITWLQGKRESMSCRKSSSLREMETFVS", "assay": "Radioligand binding assay, Angiotensin AT2", "conditions": "Human recombinant Hela cells; 0.025 nM 125I CGP-42112A; significance criteria ≦50% of max stimulation or inhibition", "description": "(§1) In order to test the selectivity of compounds, various radioligand binding assays were performed using numerous non-Edg receptor targets as listed below.\n(§2) A radioligand binding assay was performed using adrenergic α1 according to the method of Greengrass and Bremner 1979, Eur. J. Pharmacol. 55:323-326. A radioligand binding assay was performed using adrenergic α2 according to the method of Boyajian and Leslie, 1987, J. Pharmacol. Exp. Ther. 241:1092-1098. A radioligand binding assay was performed using adrenergic β according to the method of Feve et al., 1994, Proc. Natl. Acad. Sci. USA 91:5677-5681. A radioligand binding assay was performed using angiotensin AT2 according to the method of Whitebread et al., 1991, Biochem. Biophys. Res. Comm. 181:1365-1371. A radioligand binding assay was performed using calcium channel Type L, dihydropyridine according to the method of Ehlert et al., 1982, Life Sci. 30:2191-2202. A radioligand binding assay was performed using dopamine D2L according to the method of Bunzo et al., 1988, Nature 336:783-787. A radioligand binding assay was performed using endothelin ETA according to the method of Mihara et al., 1994, J. Pharmacol. Exp Ther. 268:1122-1127. A radioligand binding assay was performed using histamine H1 Central according to the method of Hill et al., 1978, J. Neurochem. 31:997-1004. […]\n(§3) Quantitation Method: Radioligand Binding […]"}, "[1]": {"system": "Calcium Channel Type L, Dihydropyridine", "assay": "Radioligand binding assay, Calcium Channel Type L, Dihydropyridine", "conditions": "Wistar Rat cerebral cortex; 0.1 nM 3H Nitrendipine; significance criteria ≦50% of max stimulation or inhibition", "description": "as §1, §2, §3"}}}
{"smiles": "Cc1c(-c2ccccc2)nc2ccccc2c1C(=O)NCc1ccc(F)cc1", "note": "[Compound 101]", "values": [{"measurement": "inhibition of S1P-stimulated calcium increases", "setting": "Edg-8", "value": "did not inhibit"}, {"measurement": "activity in radioligand binding assay", "setting": "Angiotensin AT2", "value": "no significant activity"}, {"measurement": "activity in radioligand binding assay", "setting": "[1]", "value": "no significant activity"}]}
